Read-outs that look alike come from different tables or passages of the source.
How the values were obtained:
[1] = biological target: CDK7/CycH/Mat1 (Homo sapiens, UniProt P50613); experiment: CDK7 Enzymatic Activity Assay (Lance Kinase Activity Assay, FRET); format: biochemical
Experimental: (§1) This protocol describes how the Lance Kinase Activity Assay was performed to determine IC50 values of compounds of general formula (I) against CDK/Cyclin complexes. The principle behind this enzymatic assay is based upon the phosphorylation of the Ulight-Peptide Substrat. It is detected by using a specific EU-labeled anti-phospho peptide antibody.
(§2) Binding of an inhibitor to the kinase prevents phosphorylation of the Ulight-MBP Substrat, resulting in a loss of FRET.
CDK7 Enzymatic Activity Assay
(§3) The compounds of general formula (I) exemplary summarized in Table 1 were diluted from a 10 mM DMSO stock solution 1:10 in a total volume of 15 μl DMSO. This compound predilution was then serial diluted 1:3 over 8 steps in DMSO and briefly spun down. Each compound solution was now diluted 1:20 in Enzymatic Buffer (HEPES: 50 mM, pH: 7.5; MgCl2: 10 mM; EGTA: 1 mM; DTT: 2 mM; Tween-20: 0.01%), mixed thoroughly and spun down.
(§4) For positive controls, 2 μl of DMSO working solution were mixed with 6 μl CDK7/CycH/Mat1/substrate working solution and 2 μl ATP working solution. Positive and negative controls were calculated from at least 8 different wells. The 384 well plates were mixed in a Teleshaker plate mixer (Beckman Coulter, Brea, Calif., USA) at 2000 rpm for 40 sec, and incubated for 1 h at room temperature before addition of 10 μl LANCE Detection Buffer (1×; EDTA: […]; Eu-Anti-P-MBP: 4 nM) per well. Plates were mixed in a Teleshaker plate mixer (Beckman Coulter, Brea, Calif., USA) at 2000 rpm for 40 sec, followed by incubation with Detection Buffer for 1 h, and reading. […] IC50 values were determined from the sigmoidal dose response curves with the software Quattro Workflow (Quattro GmbH, Munich, Germany).

[2] = biological target: CDK9/Cyclin T1 (Homo sapiens, UniProt P50750); experiment: CDK9 Enzymatic Activity Assay (Lance Kinase Activity Assay, FRET); format: biochemical; details: for IC50: Table 5B, class symbols per IC50 [nM] ranges of b581, read-out: CDK9: Selectivity of CDK7 inhibition over CDK9 inhibition
Chain of CDK9/Cyclin T1 (P50750 whole entry): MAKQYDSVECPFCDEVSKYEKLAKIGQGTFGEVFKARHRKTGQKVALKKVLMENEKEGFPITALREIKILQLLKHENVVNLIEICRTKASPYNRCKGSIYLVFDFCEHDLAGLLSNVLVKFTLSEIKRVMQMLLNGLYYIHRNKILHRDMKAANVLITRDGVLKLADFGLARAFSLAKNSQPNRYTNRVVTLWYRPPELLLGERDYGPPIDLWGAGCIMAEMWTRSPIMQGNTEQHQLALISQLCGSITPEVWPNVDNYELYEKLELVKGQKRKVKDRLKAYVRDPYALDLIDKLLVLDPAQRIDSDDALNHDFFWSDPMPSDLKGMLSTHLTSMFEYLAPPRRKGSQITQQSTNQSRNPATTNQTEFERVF
Chain of CDK9/Cyclin T1 (O60563 whole entry partner): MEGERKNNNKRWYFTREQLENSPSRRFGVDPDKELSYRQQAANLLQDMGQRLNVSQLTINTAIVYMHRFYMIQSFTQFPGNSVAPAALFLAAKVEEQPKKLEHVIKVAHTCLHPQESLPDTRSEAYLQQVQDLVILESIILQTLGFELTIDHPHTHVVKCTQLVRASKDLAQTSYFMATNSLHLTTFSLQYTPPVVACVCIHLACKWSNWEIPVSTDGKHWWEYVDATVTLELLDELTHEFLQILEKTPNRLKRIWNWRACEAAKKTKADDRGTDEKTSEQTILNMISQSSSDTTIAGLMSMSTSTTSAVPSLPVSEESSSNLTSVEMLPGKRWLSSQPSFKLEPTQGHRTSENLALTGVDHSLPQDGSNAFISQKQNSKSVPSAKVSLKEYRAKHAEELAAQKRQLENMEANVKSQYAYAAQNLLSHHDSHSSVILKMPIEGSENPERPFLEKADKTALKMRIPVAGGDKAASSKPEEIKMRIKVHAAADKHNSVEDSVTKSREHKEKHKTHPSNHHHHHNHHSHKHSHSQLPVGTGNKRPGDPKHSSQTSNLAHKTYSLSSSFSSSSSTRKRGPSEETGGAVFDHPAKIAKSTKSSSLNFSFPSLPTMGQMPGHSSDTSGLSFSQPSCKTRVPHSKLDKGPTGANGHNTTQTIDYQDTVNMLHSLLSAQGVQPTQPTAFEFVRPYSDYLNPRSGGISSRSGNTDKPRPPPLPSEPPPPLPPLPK
Experimental: as §1, §2
CDK9 Enzymatic Activity Assay
as §3
as §4, with “CDK9/cyclin T1/substrate” for “CDK7/CycH/Mat1/substrate”

[3] = CDK7/CycH/Mat1, 25 μM ATP final, class ranges, read-out: CDK7: IC50 [nM] for CDK7 inhibition

Chain of CDK7/CycH/Mat1 (P50613 whole entry): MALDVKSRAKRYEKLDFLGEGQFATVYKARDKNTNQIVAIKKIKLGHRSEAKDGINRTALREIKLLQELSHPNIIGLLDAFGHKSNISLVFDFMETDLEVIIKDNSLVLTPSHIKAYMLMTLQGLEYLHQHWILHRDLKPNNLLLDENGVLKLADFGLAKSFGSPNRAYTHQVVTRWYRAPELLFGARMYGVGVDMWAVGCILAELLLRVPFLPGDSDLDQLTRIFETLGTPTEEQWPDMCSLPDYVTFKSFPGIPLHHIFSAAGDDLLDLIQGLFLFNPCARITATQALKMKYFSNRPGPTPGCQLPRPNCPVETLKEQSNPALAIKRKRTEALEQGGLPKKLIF

| SMILES | IC50 [1, 3] [nM] | IC50 [2] [nM] | IC50 ([1]; Table 6, read-out: IC50 CDK7) [nM] | Selectivity CDK7 over CDK9 ([2]; Table 6) [fold] |
| --- | --- | --- | --- | --- |
| CC(C)c1cnn2c(NCc3c(Cl)cccc3Cl)nc(OC3CCN(C)CC3)nc12 [(VII-63), N-(2,6-dichlorobenzyl)-8-isopropyl-2-((1-methylpiperidin-4-yl)oxy)pyrazolo[1,5-a][1,3,5]triazin-4-amine] | 10 to 25 | > 2500 | – | – |
| CC(C)c1cnn2c(NCc3c(F)cccc3F)nc(OC3CCN(C)CC3)nc12 [(VII-64), N-(2,6-difluorobenzyl)-8-isopropyl-2-((1-methylpiperidin-4-yl)oxy)pyrazolo[1,5-a][1,3,5]triazin-4-amine] | 5 to 10 | 50 to 500 | – | – |
| CC(C)Oc1ccccc1CNc1nc(OC2CCN(C)CC2)nc2c(C(C)C)cnn12 [(VII-66), N-(2-isopropoxybenzyl)-8-isopropyl-2-((1-methylpiperidin-4-yl)oxy)pyrazolo[1,5-a][1,3,5]triazin-4-amine] | < 5 | > 2500 | – | – |
| COc1ccccc1[C@H](C)Nc1nc(OC2CCN(C)CC2)nc2c(C(C)C)cnn12 [(VII-67), (S)-8-isopropyl-N-(1-(2-methoxyphenyl)ethyl)-2-((1-methylpiperidin-4-yl)oxy)pyrazolo[1,5-a][1,3,5]triazin-4-amine] | < 5 | > 2500 | – | – |
| CC(C)c1cnn2c(N[C@@H](C)c3cccc4ccccc34)nc(OC3CCN(C)CC3)nc12 [(VII-69), (S)-8-isopropyl-2-((1-methylpiperidin-4-yl)oxy)-N-(1-(naphthalen-1-yl)ethyl)pyrazolo[1,5-a][1,3,5]triazin-4-amine] | < 5 | > 2500 | – | – |
| CCOc1ccccc1CNc1nc(OC2CCN(C)CC2)nc2c(C(C)C)cnn12 [(VII-70), N-(2-ethoxybenzyl)-8-isopropyl-2-((1-methylpiperidin-4-yl)oxy)pyrazolo[1,5-a][1,3,5]triazin-4-amine] | < 5 | > 2500 | < 5 | 992 |
| Cc1nccn1-c1ccccc1CNc1nc(OC2CCN(C)CC2)nc2c(C(C)C)cnn12 [(VII-75), 8-isopropyl-N-(2-(2-methyl-1H-imidazol-1-yl)benzyl)-2-((1-methylpiperidin-4-yl)oxy)pyrazolo[1,5-a][1,3,5]triazin-4-amine] | < 5 | > 2500 | – | – |
| CC(C)NS(=O)(=O)c1ccccc1CNc1nc(O[C@@H]2CCCNC2)nc2c(C(C)C)cnn12 [(VII-105), (R)-N-isopropyl-2-(((8-isopropyl-2-(piperidin-3-yloxy)pyrazolo[1,5-a][1,3,5]triazin-4-yl)amino)methyl)benzenesulfonamide] | > 25 | > 2500 | – | – |
| CC(C)c1cnn2c(NCc3ccccc3-n3cccn3)nc(N3CCC34CCCNC4)nc12 (stereo not shown) [(VIII-04), N-(2-(1H-pyrazol-1-yl)benzyl)-8-isopropyl-2-(1,6-diazaspiro[3.5]nonan-1-yl)pyrazolo[1,5-a][1,3,5]triazin-4-amine] | 10 to 25 | > 2500 | – | – |
| CC(C)c1cnn2c(NCc3ccccc3-n3cccn3)nc(N3CCC4(CCCCN4)C3)nc12 (stereo not shown) [(VIII-06), N-(2-(1H-pyrazol-1-yl)benzyl)-8-isopropyl-2-(2,6-diazaspiro[4.5]decan-2-yl)pyrazolo[1,5-a][1,3,5]triazin-4-amine] | < 5 | > 2500 | – | – |
| CC(C)c1cnn2c(NCc3ccccc3-n3cccn3)nc(N3CC4(CCNCC4)C3)nc12 [(VIII-12), N-(2-(1H-pyrazol-1-yl)benzyl)-8-isopropyl-2-(2,7-diazaspiro[3.5]nonan-2-yl)pyrazolo[1,5-a][1,3,5]triazin-4-amine] | < 5 | > 2500 | – | – |
| CC(C)c1cnn2c(NCc3ccccc3-n3cccn3)nc(N3CCCC34CCNC4)nc12 (stereo not shown) [(VIII-13), N-(2-(1H-pyrazol-1-yl)benzyl)-8-isopropyl-2-(1,7-diazaspiro[4.4]nonan-1-yl)pyrazolo[1,5-a][1,3,5]triazin-4-amine] | 5 to 10 | > 2500 | – | – |
| CC(C)c1cnn2c(NCc3ccccc3-n3cccn3)nc(N3CCCC4(CCCCN4)C3)nc12 (stereo not shown) [(VIII-15), N-(2-(1H-pyrazol-1-yl)benzyl)-8-isopropyl-2-(1,8-diazaspiro[5.5]undecan-8-yl)pyrazolo[1,5-a][1,3,5]triazin-4-amine] | 10 to 25 | > 2500 | – | – |
| CC(C)c1cnn2c(NCc3ccccc3-c3nnnn3C)nc(N3CCC4(CCCN4)CC3)nc12 [(VIII-18), 8-isopropyl-N-(2-(1-methyl-1H-tetrazol-5-yl)benzyl)-2-(1,8-diazaspiro[4.5]decan-8-yl)pyrazolo[1,5-a][1,3,5]triazin-4-amine] | < 5 | > 2500 | – | – |
| CC(C)c1cnn2c(NCc3ccccc3-c3nnn(C)n3)nc(N3CCC4(CCCN4)CC3)nc12 [(VIII-19), 8-isopropyl-N-(2-(2-methyl-2H-tetrazol-5-yl)benzyl)-2-(1,8-diazaspiro[4.5]decan-8-yl)pyrazolo[1,5-a][1,3,5]triazin-4-amine] | < 5 | > 2500 | – | – |
| CC(C)c1cnn2c(NCc3ccccc3-n3cccn3)nc(N3CCC4(CCN4)CC3)nc12 [(VIII-20), N-(2-(1H-pyrazol-1-yl)benzyl)-8-isopropyl-2-(1,7-diazaspiro[3.5]nonan-7-yl)pyrazolo[1,5-a][1,3,5]triazin-4-amine] | < 5 | > 2500 | – | – |

Now from value to molecule:

| IC50 [1, 3] [nM] | IC50 [2] [nM] | IC50 ([1]; Table 6, read-out: IC50 CDK7) [nM] | Selectivity CDK7 over CDK9 ([2]; Table 6) [fold] | SMILES |
| --- | --- | --- | --- | --- |
| < 5 | > 2500 | – | – | CC(C)c1cnn2c(NCc3ccccc3-n3cccn3)nc(N3CC4(CCNC4)C3)nc12 [(VIII-02), N-(2-(1H-pyrazol-1-yl)benzyl)-8-isopropyl-2-(2,6-diazaspiro[3.4]octan-2-yl)pyrazolo[1,5-a][1,3,5]triazin-4-amine] |
| < 5 | > 2500 | – | – | CC(C)c1cnn2c(NCc3ccccc3-n3cccn3)nc(N3CCC4(CCNC4)C3)nc12 (stereo not shown) [(VIII-03), N-(2-(1H-pyrazol-1-yl)benzyl)-8-isopropyl-2-(2,7-diazaspiro[4.4]nonan-2-yl)pyrazolo[1,5-a][1,3,5]triazin-4-amine] |
| < 5 | > 2500 | – | – | CC(C)c1cnn2c(NCc3ccccc3-n3cccn3)nc(N3CC4(CCCNC4)C3)nc12 [(VIII-05), N-(2-(1H-pyrazol-1-yl)benzyl)-8-isopropyl-2-(2,6-diazaspiro[3.5]nonan-2-yl)pyrazolo[1,5-a][1,3,5]triazin-4-amine] |
| < 5 | > 2500 | – | – | CC(C)c1cnn2c(NCc3ccccc3-n3cccn3)nc(N3CCC4(CNC4)C3)nc12 [(VIII-07), N-(2-(1H-pyrazol-1-yl)benzyl)-8-isopropyl-2-(2,6-diazaspiro[3.4]octan-6-yl)pyrazolo[1,5-a][1,3,5]triazin-4-amine] |
| 5 to 10 | > 2500 | – | – | CC(C)c1cnn2c(NCc3ccccc3-n3cccn3)nc(N3CCC34CNC4)nc12 [(VIII-08), N-(2-(1H-pyrazol-1-yl)benzyl)-8-isopropyl-2-(1,6-diazaspiro[3.3]heptan-1-yl)pyrazolo[1,5-a][1,3,5]triazin-4-amine] |
| 5 to 10 | > 2500 | – | – | CC(C)c1cnn2c(NCc3ccccc3-n3cccn3)nc(N3CCC4(CCNC4)CC3)nc12 [(VIII-09), N-(2-(1H-pyrazol-1-yl)benzyl)-8-isopropyl-2-(2,8-diazaspiro[4.5]decan-8-yl)pyrazolo[1,5-a][1,3,5]triazin-4-amine] |
| 5 to 10 | > 2500 | – | – | CC(C)c1cnn2c(NCc3ccccc3-n3cccn3)nc(N3CC4(CNC4)C3)nc12 [(VIII-10), N-(2-(1H-pyrazol-1-yl)benzyl)-8-isopropyl-2-(2,6-diazaspiro[3.3]heptan-2-yl)pyrazolo[1,5-a][1,3,5]triazin-4-amine] |
| 10 to 25 | > 2500 | – | – | CC(C)c1cnn2c(NCc3ccccc3-n3cccn3)nc(N3CCCC4(CCCNC4)C3)nc12 (stereo not shown) [(VIII-14), N-(2-(1H-pyrazol-1-yl)benzyl)-8-isopropyl-2-(2,8-diazaspiro[5.5]undecan-2-yl)pyrazolo[1,5-a][1,3,5]triazin-4-amine] |
| < 5 | > 2500 | – | – | CC(C)c1cnn2c(NCc3ccccc3-n3cccn3)nc(N3CCC4(CC3)CNC4)nc12 [(VIII-16), N-(2-(1H-pyrazol-1-yl)benzyl)-8-isopropyl-2-(2,7-diazaspiro[3.5]nonan-7-yl)pyrazolo[1,5-a][1,3,5]triazin-4-amine] |
